This is an account of results in PubChem BioAssay AID1963444 (Molecular Pharmacology Branch, DTP, NCI, 2024).

pIC50: −log10 of the molar value. Where “and” joins values, the source holds several entries; their conditions need not be identical. Equal values may be shown once.

The experiment has as its system HSSY-II complex spheroid growth, percent test/control. Put plainly: Anticancer human tumor HSSY-II cell line growth inhibition [Asc].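 As to all read-outs here: spheroids exposed to drug for 7 days before reading.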 The note with it: for viability, T/C: stronger effect = lower value. As to the method: Multicellular complex tumor spheroid response to apoptosis pathway targeting inhibitors Alrizomadlin, Pelcitoclax, and Dasminapant in combination with a variety of drugs and investigational agents in selected tumor cell lines
The MDM2 inhibitor alrizomadlin, the Bcl-2/Bcl-xL inhibitor pelcitoclax, and the IAPs inhibitor dasminapant were evaluated both individually and in combination with standard of care and investigational anticancer small molecules within a complex spheroid model of solid tumors. . Complex spheroids include a stromal component modeled by human endothelial cells (HUVEC) and fibroblasts modeled by human mesenchymal stem cells (MSCs). The concentration ranges selected for each drug and investigational agent were based upon clinically achievable concentrations if the clinical Cmax of the agent was known.
Compounds. The drugs and investigational agents: alrizomadlin (APG-115; NSC831270), pelcitoclax (APG-1252; NSC835773), dasminapant (APG-1387;NSC834197), TAK-243 (NSC785004), copanlisib (NSC809693), olaparib (NSC753686), talazoparib (NSC767125), cobimetinib (NSC 768068), eltanexor (KPT-8602, NSC 794443), abemaciclib (NSC 768073), sotorasib (NSC818433), adagrasib (NSC 831453), MRTX-1133 (NSC 836407), Iadademestat (ORY1001, NSC 806812), and RMC-4630 (NSC839698), were obtained from the NCI Developmental Therapeutics Program Chemical Repository. The FDA-approved anticancer drug set is available from the Developmental Therapeutics Program at https://dtp.cancer.gov/organization/dscb/obtaining/available plates.htm. […] The stock solutions were prepared in dimethyl sulfoxide (DMSO, Sigma-Aldrich, St. Louis, MO, cat. D2650) at 800-fold the tested concentration and stored at -70 degrees C prior to their use. All drugs and investigational agents were tested over a range starting from a high concentration at or near the clinical Cmax and decreasing in half-log increments. If the clinical Cmax for an agent had not been determined, the highest concentration tested was 10 microM.
The patient-derived cancer (PDC) cell lines include five colon adenocarcinomas: 186277-243-T-J2-PDC, 616215-338-R-J1-PDC, 439559-082-T-J2-PDC, 463943-066-T-J2-PDC, and 519858-162-T-J1-PDC; three pancreatic carcinomas: 323965-272-R-J2-PDC, 521955-158-R6-J3-PDC, and 521955-158-R2-J5-PDC; two uterine sarcomas: 327498-152-R-J2-PDC and 993429-296-R-J1-PDC; two rhabdomyosarcomas: 755483-174-R-J1-PDC and 772245-204-R-J1-PDC; two soft tissue sarcomas: 126254-015-R-J1-PDC and 494315-158-R-J1-PDC; two malignant fibrous histiocytomas: 317291-083-R-J1-PDC and 596521-263-R-J1-PDC; two breast carcinomas: 171881-019-R-J1-PDC and 885512-296-R-J2-PDC; and one ovarian carcinoma: 6556581-035-R-J-PDC were obtained from the NCI PDMR, (https://pdmr.cancer.gov). The established cell lines HSSY-2 synovial sarcoma (RRID:CVCL 8719), SYO-1 synovial sarcoma (RRID:CVCL_7146), MPNST malignant peripheral neural sheath tumor were obtained from the Sloan Kettering Institute. The following established cell lines were purchased from the American Type Culture Collection (ATCC, Manassas, VA), Sor the received from the NCI repository:, PANC-1 pancreatic carcinoma (CRL-1469, RRID:CVCL_0480), OVCAR-5 ovarian carcinoma (RRID:CVCL_1628), OVCAR-8 ovarian carcinoma (RRID:CVCL_1629), , MCF-7 breast carcinoma (CRL-12584, RRID:CVCL_0031), MDA-MB-231 breast carcinoma (CRL-12532, RRID:CVCL_0062), NCI-H1876 small cell lung carcinoma (CRL-5902, RRID:CVCL_1503), NCI-H510A small cell lung carcinoma (HTB-184, RRID:CVCL_1565), NCI-H1417 (CRL-5869, RRID:CVCL_1469), and NCI-H196 small cell lung carcinoma (CRL-5823, RRID:CVCL_1509). Dr. Peter Houghton (Greehey Children's Cancer Research Institute, University of Texas Health Science Center, San Antonio, TX) provided Rh-18 rhabdomyosarcoma (RRID:CVCL_1659). Pooled donor human umbilical vein endothelial cells (HUVEC, Lonza, cat. CC-2519) and human mesenchymal stem cells (hMSC, Lonza, cat. PT-2501) were purchased from Lonza (Walkersville, MD).
Cell Culture. […]

Where [1] appears, read: compound alone, run of 10/11/2022.

Turning to `C#Cc1c(F)ccc2cc(O)cc(-c3ncc4c(N5CC6CCC(C5)N6)nc(OCC56CCCN5CC(F)C6)nc4c3F)c12` (stereo unspecified), the viability, T/C – broadly, the ratio of treated to control – (compound 0.0316 µM) is 97.9% and 106% and 112%; the viability, T/C (compound 0.1 µM) is 101% and 94.9% and 106%; the viability, T/C (compound 0.316 µM) is 97.4% and 92.7% and 94%; the viability, T/C (compound 1 µM) is 105% and 102% and 90.2%; the viability, T/C (compound 3.16 µM) is 91.3% and 93.7% and 92.3%; the viability, T/C (compound 10 µM) was 74.2% and 53.3% and 44.5%. Moreover, under “curve of compound”, the pIC50 (commonly −log10 of the IC50, conventionally taken in molar units) is < 5.00 and 5.05.

Consider `C=C(F)C(=O)N1CCN(c2nc(OCC3CCCN3C)nc3c2CCN(c2cccc4cccc(Cl)c24)C3)CC1CC#N` (stereo unspecified), for which the viability, T/C is 102% and 104% and 97.2% (compound 0.0316 µM); 100% and 111% and 98.8% (compound 0.1 µM); 89.8% and 89.1% and 90.5% (compound 0.316 µM); 70.2% and 80.1% and 70% (compound 1 µM); 5.2% and 4.65% and 3.69% (compound 3.16 µM); 0.22% and 0.2% and 0.21% (compound 10 µM). For the setting “curve of compound”, the pIC50 is 5.84 and 5.80 and 5.85.

With `C=CC(=O)N1CCN(c2nc(=O)n(-c3c(C)ccnc3C(C)C)c3nc(-c4c(O)cccc4F)c(F)cc23)C(C)C1` (stereo unspecified), the viability, T/C is 107% and 90.9% and 100% (compound 0.0316 µM); 108% and 97.8% and 106% (compound 0.1 µM); 106% and 100% and 99.8% (compound 0.316 µM); 106% and 105% and 102% (compound 1 µM); 95.8% and 106% and 103% (compound 3.16 µM); 66.7% and 56.7% and 70.2% (compound 10 µM). Also, the pIC50 (curve of compound) was below 5.00.

On to `CCN1C(C(=O)NC23CCC(C(=O)O)(CC2)CC3)C(c2cccc(Cl)c2F)C2(C(=O)Nc3cc(Cl)ccc32)C12CCCCC2` (stereo unspecified), for which the viability, T/C by setting is: (compound 0.00949 µM) 99.7% and 101%; (compound 0.03 µM) 89.3% [middle of 15 runs]; (compound 0.0949 µM) 62.1% [middle of 15 runs]; (compound 0.3 µM) 27% [middle of 15 runs]; (compound 0.949 µM) 8.58% [middle of 15 runs]; (compound 3 µM) 2.55% [middle of 15 runs]. Moreover, under setting [1], the concentration for half-maximal inhibition (IC50) (as a rule, the point on the concentration scale where inhibition reaches its midpoint) was 143 nM [middle of 12 runs]. Besides, the pIC50 (curve of compound) is 6.88 and 6.87.

For the molecule `CCN1CCN(Cc2ccc(Nc3ncc(F)c(-c4cc(F)c5nc(C)n(C(C)C)c5c4)n3)nc2)CC1`, the viability, T/C by setting is: (compound 0.00316 µM) 102% and 74.4% and 98.4%; (compound 0.01 µM) 94.4% and 70.5% and 78.7%; (compound 0.0316 µM) 65.6% and 73.6% and 78.9%; (compound 0.1 µM) 59.6% and 44.7% and 74.7%; (compound 0.316 µM) 49.6% and 35.2% and 46.9%; (compound 1 µM) 27.2% and 30.8% and 28.5%. The pIC50 (curve of compound) was 6.70 and 7.09 and 6.48.

As to `CNC(C)C(=O)NC1CN(S(=O)(=O)c2cccc(S(=O)(=O)N3CCC4CCC(C(=O)NC(c5ccccc5)c5ccccc5)N4C(=O)C(NC(=O)C(C)NC)C3)c2)CCC2CCC(C(=O)NC(c3ccccc3)c3ccccc3)N2C1=O` (stereo unspecified), the viability, T/C is 102% and 96.8% and 85% (compound 0.00316 µM); 89.1% [middle of 14 runs] (compound 0.0316 µM). The pIC50 runs as follows: (compound alone, run of 10/24/2022) below 6.00; (compound alone, run of 11/15/2022) below 6.00; (curve of compound) below 6.00.

`COc1c(OCCCN2CCOCC2)ccc2c3n(c(=NC(=O)c4cnc(N)nc4)nc12)CCN3`: the viability, T/C was 91.6% and 98.3% and 96.8% (compound 0.00316 µM); 79.1% and 86.2% and 79.5% (compound 0.01 µM); 49.7% and 56.5% and 61.6% (compound 0.0316 µM); 32.7% and 39.2% and 46.4% (compound 0.1 µM); 23.3% and 23.6% and 26.9% (compound 0.316 µM); 13.1% and 13.5% and 11.5% (compound 1 µM). Further, the pIC50 (curve of compound) was 7.43 and 7.27 and 7.14.

Consider `Cc1c(S(C)(=O)=O)c(-c2cc(F)cc(N3CCN(c4ccc(NS(=O)(=O)c5ccc(NC(CCN6CCC(C(=O)OCCCP(=O)(O)O)CC6)CSc6ccccc6)c(S(=O)(=O)C(F)(F)F)c5)cc4)CC3)c2)c(-c2ccc(Cl)cc2)n1C(C)C` (stereo unspecified), for which, under setting [1], the pIC50 is < 5.00 and 5.58.

With `Cc1nc(N2CCC3(CC2)COC(C)C3N)c(CO)nc1Sc1ccnc(N)c1Cl` (stereo unspecified), the viability, T/C reads like this: (compound 0.00949 µM) 96.6% and 103% and 111%; (compound 0.03 µM) 96.7% and 113% and 106%; (compound 0.0949 µM) 96.6% and 108% and 102%; (compound 0.3 µM) 99.3% and 106% and 105%; (compound 0.949 µM) 91.7% (2×) and 88.5%; (compound 3 µM) 67.1% and 75.8% and 68.5%. The pIC50 (curve of compound) is below 5.52.

Turning to `Cn1ncnc1[C@H]1c2n[nH]c(=O)c3cc(F)cc(c23)N[C@@H]1c1ccc(F)cc1`, the viability, T/C runs as follows: (compound 0.000316 µM) 93.9% and 100% and 96.2%; (compound 0.001 µM) 94.1% and 95.6% and 96.7%; (compound 0.00316 µM) 90.7% and 96% and 83.2%; (compound 0.01 µM) 70.8% and 84.3% and 72.3%; (compound 0.0316 µM) 57.3% and 55.5% and 65.2%; (compound 0.1 µM) 25.6% and 69.3% and 22.8%. In addition, the pIC50 (curve of compound) was 7.41 and < 7.00 and 7.37.

As for `NC(=O)C(=Cn1cnc(-c2cc(C(F)(F)F)cc(C(F)(F)F)c2)n1)c1cncnc1`, the viability, T/C runs as follows: (compound 0.000949 µM) 97.2% and 85.3% and 90.9%; (compound 0.003 µM) 94.1% and 76.9% and 88.4%; (compound 0.00949 µM) 67.6% and 69.8% and 61.6%; (compound 0.03 µM) 46.4% and 29.8% and 40.1%; (compound 0.0949 µM) 18.6% and 11.1% and 9.98%; (compound 0.3 µM) 1.34% and 1.15% and 1.13%. Further, where the note is “curve of compound”, the pIC50 was 7.62 and 7.78 and 7.75.

On to `NC1CCC(NC2CC2c2ccccc2)CC1` (stereo unspecified), for which the viability, T/C was 71.8% and 62.3% and 60.2% (compound 0.000316 µM); 68.3% and 66.5% and 58.3% (compound 0.001 µM); 58.7% and 61.8% and 52.4% (compound 0.00316 µM); 53.8% and 56.1% and 47% (compound 0.01 µM); 61% and 59.4% and 54.2% (compound 0.0316 µM); 59.8% and 53.7% and 49.7% (compound 0.1 µM). Further, the pIC50 (curve of compound) was below 7.00.

As for `O=C(c1cc(Cc2n[nH]c(=O)c3ccccc23)ccc1F)N1CCN(C(=O)C2CC2)CC1`, the viability, T/C reads like this: (compound 0.0316 µM) 87.4% and 98% and 105%; (compound 0.1 µM) 90.4% and 103% and 91.2%; (compound 0.316 µM) 86.4% and 63% and 94.2%; (compound 1 µM) 78.5% and 87.6% and 98.6%; (compound 3.16 µM) 46.7% and 54.1% and 59.5%; (compound 10 µM) 15.5% and 12.1% and 11.8%. Further, where the note is “curve of compound”, the pIC50 was 5.55 and 5.45 and 5.40.

Consider `O=C(c1ccc(F)c(F)c1Nc1ccc(I)cc1F)N1CC(O)([C@@H]2CCCCN2)C1`, for which the viability, T/C reads like this: (compound 0.00316 µM) 97.1% and 106% and 100%; (compound 0.01 µM) 99.7% and 107% and 102%; (compound 0.0316 µM) 83.1% and 103% and 102%; (compound 0.1 µM) 92.8% and 102% and 122%; (compound 0.316 µM) 73.6% and 74.8% and 78.3%; (compound 1 µM) 19.4% and 25.9% and 26%. The pIC50 (curve of compound) is 6.28 and 6.25 and 6.23.
